Drawing on patent US6420558B1, “Aminopiperidine derivates as integrin αvβ3 antagonists” (Meiji Seika Kaisha, Ltd., priority 1998, dated 2002), this text covers IC50 for 1 compound.

Test [1] concerns the target T1, integrin α5β1 (fibronectin receptor purified from the human placenta) (Homo sapiens, UniProt P05556+P08648).
T1 construct: a fibronectin receptor (protein content: 52.1 μg/ml) purified from the human placenta; from tissue; host or cells: human placenta
The test can be described thus: α5β1 binding assay (fibronectin-fibronectin receptor binding assay). The note with it: fibronectin binding to human placenta fibronectin receptor; read-out: α5β1 Binding inhibitory activity. The protocol: Integrin α5β1 antagonistic activity (lethality) was measured for the compounds according to the present invention in a fibronectin-fibronectin receptor binding assay system in accordance with the method of Kouns et al. (W. C. Kouns, D. Kirchhofer, P. Hadvary, A. Edenhofer, T. Weller, G. Pfenninger, H. R. Baumgartner, L. K. Jennings, and B. Steiner, Blood, 80, 2539-2547 (1992)).
Specifically, a fibronectin receptor (protein content: 52.1 μg/ml) purified from the human placenta by the method of Pytela et al. (R. Pytela, M. D. Pierschbacher, S. Argraves, S. Suzuki, and E. Ruoslahti, Method in Enzymology, 144, 475-489 (1987)) was diluted 25 times with TBS (20 mM Tris-HCl, 150 mM NaCl, 1 mM CaCl2, 1 mM MgCl2, pH 7.4), and distributed and coated on wells (50 μl/well) of a plate (Maxisorp, Nunc, 96 well Immuno Plate). The plate was then allowed to stand at 4° C. for one day, washed twice with TBS (200 μl/well), and then subjected to blocking with TBS (150 μl/well) containing 3% skim milk (DIFCO) at 4° C. overnight. After washing twice with TBS (200 μl/well) containing 0.05% Tween-20 and then washing twice with TBS (200 μl/well), purification was carried out according to the method of E. Engvall et al. (E. Engvall, E. Ruoslahti, and E. J. Miller, J. Exp. Med., 147, 1584-1595 (1978)), and 50 […] of fibronectin adjusted to 0.2 μg/ml by the addition of TBS (TBS-Tween) containing 0.01% Tween-20 was mixed with 50 μl of each test compound adjusted to each concentration in the wells, and a reaction was allowed to proceed at room temperature for 3 hr. After the completion of the reaction, the wells were washed five times with TBS-Tween. A solution prepared by diluting a peroxidase-labeled fibronectin antibody (CAPPEL) 500 times with TBS-Tween was added in an amount of 50 μl per well, and a reaction was allowed to proceed at room temperature for 1.5 hr. After washing five times with TBS-Tween (200 μl/well), ABTS (SIGMA) adjusted to 1 mg/ml by the addition of a ten-fold diluted POD-buffer (ZYMED) was added in an amount of 50 μl/well, and a reaction was allowed to proceed for 5 to 10 min. A 0.1 M citric acid buffer (pH 4.3) containing 0.05% NaN3 was added in an amount of 50 μl/well to stop the reaction, followed by the measurement of the absorbance at 415 nm with a microplate reader (MTP 32, Corona Electric) (reference: 675 nm). The total binding was defined as the absorbance after a reaction using 50 μl of TBS-Tween instead of the test compound, and the non-specific binding (100% inhibition) was defined as the absorbance after a reaction using 50 μl of TBS-Tween containing 2×10^−3 M RGDS. The inhibition was calculated by the following equation: [formula]
IC50 was determined from a primary regression line of the logarithm of each concentration of the test compound and the logarithm of (100−inhibition)/inhibition.

The target of test [2] is T2, integrin αvβ3 (vitronectin receptor purified from the human placenta) (Homo sapiens, UniProt P05106+P06756).
T2 construct: a vitronectin receptor (protein content: 118 μg/ml) purified from the human placenta; from tissue; host or cells: human placenta
T2 sequence (P06756 31-889 limits assumed): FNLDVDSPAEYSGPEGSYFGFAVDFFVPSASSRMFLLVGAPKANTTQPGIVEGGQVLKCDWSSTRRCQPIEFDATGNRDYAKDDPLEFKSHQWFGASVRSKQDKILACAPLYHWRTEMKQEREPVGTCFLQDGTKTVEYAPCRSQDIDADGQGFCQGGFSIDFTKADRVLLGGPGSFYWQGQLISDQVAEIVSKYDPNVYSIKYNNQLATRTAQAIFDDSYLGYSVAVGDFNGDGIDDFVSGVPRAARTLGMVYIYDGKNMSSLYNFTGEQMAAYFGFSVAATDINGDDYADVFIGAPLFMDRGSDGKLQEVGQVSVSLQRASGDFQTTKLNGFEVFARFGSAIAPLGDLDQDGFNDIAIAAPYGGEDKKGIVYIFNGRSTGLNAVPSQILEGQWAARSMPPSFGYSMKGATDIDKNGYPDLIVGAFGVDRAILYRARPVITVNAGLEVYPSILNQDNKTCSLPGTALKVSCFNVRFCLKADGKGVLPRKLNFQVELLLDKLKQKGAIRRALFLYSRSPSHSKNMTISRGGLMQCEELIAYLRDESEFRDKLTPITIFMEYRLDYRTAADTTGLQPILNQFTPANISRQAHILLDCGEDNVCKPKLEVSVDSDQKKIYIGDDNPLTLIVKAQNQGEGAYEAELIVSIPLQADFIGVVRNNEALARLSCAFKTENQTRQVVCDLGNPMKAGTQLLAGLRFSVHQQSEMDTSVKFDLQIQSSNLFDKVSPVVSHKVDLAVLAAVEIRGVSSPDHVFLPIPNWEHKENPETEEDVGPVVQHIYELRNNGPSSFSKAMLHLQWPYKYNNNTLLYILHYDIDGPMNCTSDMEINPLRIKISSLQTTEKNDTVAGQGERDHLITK
T2 sequence (P06756 891-1048 limits assumed): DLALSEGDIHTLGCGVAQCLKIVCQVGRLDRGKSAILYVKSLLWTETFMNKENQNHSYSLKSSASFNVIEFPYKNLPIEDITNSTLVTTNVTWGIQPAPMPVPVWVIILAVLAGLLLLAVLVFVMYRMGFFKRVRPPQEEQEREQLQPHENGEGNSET
T2 sequence (P05106 27-788): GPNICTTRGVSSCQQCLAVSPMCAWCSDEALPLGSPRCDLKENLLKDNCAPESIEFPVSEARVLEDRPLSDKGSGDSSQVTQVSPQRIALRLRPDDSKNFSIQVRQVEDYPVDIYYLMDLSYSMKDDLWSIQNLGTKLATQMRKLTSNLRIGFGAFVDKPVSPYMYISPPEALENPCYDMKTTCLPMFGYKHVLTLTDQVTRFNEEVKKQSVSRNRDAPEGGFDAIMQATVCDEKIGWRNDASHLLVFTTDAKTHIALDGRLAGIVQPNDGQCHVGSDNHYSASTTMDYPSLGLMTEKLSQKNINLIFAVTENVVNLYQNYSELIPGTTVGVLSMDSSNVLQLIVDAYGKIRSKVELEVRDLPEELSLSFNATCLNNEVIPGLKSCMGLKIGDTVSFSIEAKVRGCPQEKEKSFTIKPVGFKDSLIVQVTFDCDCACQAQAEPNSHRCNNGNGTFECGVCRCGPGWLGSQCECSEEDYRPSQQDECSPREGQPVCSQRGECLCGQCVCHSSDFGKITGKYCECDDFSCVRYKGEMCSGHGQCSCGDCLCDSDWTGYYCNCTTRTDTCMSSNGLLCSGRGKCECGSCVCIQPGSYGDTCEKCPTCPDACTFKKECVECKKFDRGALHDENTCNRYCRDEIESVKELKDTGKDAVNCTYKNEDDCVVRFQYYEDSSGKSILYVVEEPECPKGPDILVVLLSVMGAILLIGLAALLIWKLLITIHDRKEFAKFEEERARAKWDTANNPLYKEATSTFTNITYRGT
Put plainly: αvβ3 binding assay (vitronectin-vitronectin receptor binding assay). The settings on record: vitronectin binding to human placenta vitronectin receptor; read-out: integrin αvβ3 antagonistic activity, IC50 value.

A value given as a limit tells only on which side of the number the result lay.

T1 sequence (P08648 42-894 limits assumed): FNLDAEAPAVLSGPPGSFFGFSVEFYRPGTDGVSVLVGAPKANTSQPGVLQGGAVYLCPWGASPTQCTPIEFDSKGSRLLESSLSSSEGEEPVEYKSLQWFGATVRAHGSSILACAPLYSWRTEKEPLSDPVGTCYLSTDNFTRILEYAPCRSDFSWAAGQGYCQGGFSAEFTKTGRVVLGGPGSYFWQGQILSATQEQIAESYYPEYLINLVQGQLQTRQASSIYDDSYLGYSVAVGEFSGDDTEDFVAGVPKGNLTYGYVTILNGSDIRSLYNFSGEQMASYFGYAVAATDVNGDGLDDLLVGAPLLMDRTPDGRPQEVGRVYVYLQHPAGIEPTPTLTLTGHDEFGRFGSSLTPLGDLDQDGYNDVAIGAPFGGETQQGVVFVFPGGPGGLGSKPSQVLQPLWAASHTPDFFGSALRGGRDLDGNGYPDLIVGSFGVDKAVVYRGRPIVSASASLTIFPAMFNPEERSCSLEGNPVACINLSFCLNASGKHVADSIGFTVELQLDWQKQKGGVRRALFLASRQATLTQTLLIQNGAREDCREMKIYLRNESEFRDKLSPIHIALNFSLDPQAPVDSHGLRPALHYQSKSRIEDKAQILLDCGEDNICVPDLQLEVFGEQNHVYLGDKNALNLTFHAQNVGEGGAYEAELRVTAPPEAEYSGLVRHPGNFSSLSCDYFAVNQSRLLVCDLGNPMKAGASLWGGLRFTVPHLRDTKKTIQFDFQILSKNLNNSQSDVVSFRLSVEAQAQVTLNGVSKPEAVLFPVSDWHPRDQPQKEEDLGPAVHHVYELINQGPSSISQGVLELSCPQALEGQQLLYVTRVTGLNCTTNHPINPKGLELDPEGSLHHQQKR
T1 sequence (P08648 895-1049 limits assumed): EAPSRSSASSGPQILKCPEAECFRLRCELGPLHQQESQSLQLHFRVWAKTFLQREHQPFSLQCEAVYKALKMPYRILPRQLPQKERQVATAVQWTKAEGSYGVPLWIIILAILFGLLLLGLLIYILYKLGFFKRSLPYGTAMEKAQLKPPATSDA
T1 sequence (P05556 21-798): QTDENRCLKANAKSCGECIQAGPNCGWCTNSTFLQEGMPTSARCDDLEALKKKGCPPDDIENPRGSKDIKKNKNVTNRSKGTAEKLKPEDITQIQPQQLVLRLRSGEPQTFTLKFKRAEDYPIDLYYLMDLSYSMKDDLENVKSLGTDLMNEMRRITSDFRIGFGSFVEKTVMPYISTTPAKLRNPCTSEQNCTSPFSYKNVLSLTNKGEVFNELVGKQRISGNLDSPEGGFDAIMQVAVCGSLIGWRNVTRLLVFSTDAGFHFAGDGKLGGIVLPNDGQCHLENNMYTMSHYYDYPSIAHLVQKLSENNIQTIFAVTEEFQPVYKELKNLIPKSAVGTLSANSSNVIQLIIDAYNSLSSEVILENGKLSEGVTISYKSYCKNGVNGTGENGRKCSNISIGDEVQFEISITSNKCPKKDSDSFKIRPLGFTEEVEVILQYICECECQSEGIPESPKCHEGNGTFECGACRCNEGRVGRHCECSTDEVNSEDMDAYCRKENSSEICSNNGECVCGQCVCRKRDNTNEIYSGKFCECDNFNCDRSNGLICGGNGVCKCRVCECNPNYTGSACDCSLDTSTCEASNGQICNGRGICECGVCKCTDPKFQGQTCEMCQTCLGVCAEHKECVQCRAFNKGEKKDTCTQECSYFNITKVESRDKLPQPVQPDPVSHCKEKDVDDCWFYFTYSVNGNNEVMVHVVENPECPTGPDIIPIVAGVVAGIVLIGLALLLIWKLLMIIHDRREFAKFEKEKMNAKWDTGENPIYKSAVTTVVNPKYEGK

`O=C(NC[C@H](NS(=O)(=O)c1ccccc1)C(=O)O)c1ccc(N2CCC(NC3=NCCCN3)CC2)c(F)c1` [Example 52, (2S)-Benzenesulfonylamino-3-[3-fluoro-4-{4-(1,4,5,6-tetrahydropyrimidin-2-ylamino)piperidin-1-yl}-benzoylamino]propionic acid]: the IC50 in test [1] is 330 nM; in test [2], at most 1 nM.
